The source of these data is patent publication US8648099B2 (Hoffmann-La Roche Inc., priority 2011, dated 2014).

As a reminder, the inhibition is the drop in the measured response relative to a control, in per cent. The EC50 is the concentration needed to bring the measured effect to its halfway point.

Where two headings read alike, the source gives them in different places. Where only a bound is given, the exact number is not on record here.

One assay has as its target T1, human CB1 receptor (Homo sapiens, UniProt P21554).
T1 construct: expressed in transfected cells; host or cells: human embryonic kidney (HEK) cells, Semliki Forest Virus system, membrane preparations
Nature of the assay: CB1 receptor affinity ([3H]-CP-55,940 displacement, HEK cell membranes). In kind it is binding. Conditions: read-out: CB1 receptor affinity [% inhibition @ 10 μM]. How it is done:
(§1) The affinity of the compounds of the invention for cannabinoid receptors was determined using membrane preparations of human embryonic kidney (HEK) cells in which the human CB1 receptor is transiently transfected using a Semliki Forest Virus system in conjunction with [3H]-CP-55,940 as radioligand. After incubation of freshly prepared cell membrane preparation with the [^3H]-ligand, with or without addition of compounds of the invention, separation of bound and free ligand was performed by filtration over glass fiber filters. Radioactivity on the filter was measured by scintillation counting.
(§2) The ability of the compounds to displace the radioligand [^3H]-CP-55,940 was measured at a concentration of 10 μM and values provided as [% inhibition @ 10 μM] both for the CB1 and CB2 receptor assay, The lower % inhibition is, the lower the likelihood of side effects based on CB1 or CB2 receptor inhibition is.

The next assay addresses T2, human CB2 receptor (Homo sapiens, UniProt P34972).
T2 construct: expressed in transfected cells; host or cells: human embryonic kidney (HEK) cells, Semliki Forest Virus system, membrane preparations
Description: CB2 receptor affinity ([3H]-CP-55,940 displacement, HEK cell membranes). The assay is classed as binding. Particulars: displacement of [3H]-CP-55,940 at 10 μM. The method, then: as §1, with “cannabinoid CB2” for “cannabinoid”, “CB2” for “CB1”, “[^3H]-CP-55,940” for “[3H]-CP-55,940”
as §2

A further assay concerns ABCA1 protein. Nature of the assay: Detection of upregulation of ABCA1 protein in cells (ApoA-I binding, high content imaging). In kind it is cell-based. Particulars: THP-1 macrophage cells; for % increase of ABCA1 at 3 μM: compound at 3 μM, 24 hrs; for EC50: 24 hrs compound incubation, read-out: EC50 [μM] ABCA1 protein increasing efficacy. The method, then: The ability of compounds of the invention to increase the level of ABCA1 protein is determined in replicate cultures of THP-1 macrophage cells in 96-well microplates. Cells are plated at an initial density of 100,000 cells/well in 100 μl medium and differentiated to adherent macrophages with the addition of PMA (100 nM) for 68 hrs in 10% fetal bovine serum, 3 μl/L of b-mercaptoethanol, RPMI-1640 medium. Then, cells are incubated with RPMI-1640 medium containing 1% FCS, 25 μg/ml acetylated LDL, for 24 hours at 37° C. Following incubation with acetylated LDL, cells are washed twice with 50 μl PBS and incubated with 100 μl of RPMI-1640 medium containing the compound of interest solubilized in DMSO for an additional 24 hrs. The final DMSO concentration in presence of cells is maintained at 0.5%. ApoA-I binding assay using High Content Image Analysis is initiated by replacing with fresh medium, RPMI without Phenol Red, 0.2% BSA containing AlexaFluor®647 labeled ApoA-I for 2 h/37° C./5% CO2. Then, cells are fixed with 4% Formaldehyde in PBS (15 min, RT). Following Nuclei are stained with Hoechst solution (3 μM PBS) and Cytoplasm with Cell Mask Blue (2 μg/ml PBS), 15 min, RT. Finally the stained cells are fixed with a second round of formaldehyde treatment. Fixed stained cells are washed and kept in PBS at 4° C. and can be read immediately until one month after preparation.
The Alexa Fluor 647-labeled Apolipoprotein A-I (20 nM) was prepared as follows: Human recombinant Apolipoprotein A-I (ApoA-I) was exchanged to a buffer of 0.02 M NaHCO3 at pH 8.2 on an NAP desalting column (GE Healthcare) and brought to a concentration to 40 μM (1.13 mg/ml) by adjustment with the same buffer. The ApoA-I was fluorescently labeled by incubation with Alexa Fluor carboxylic acid succimidyl ester (Alexa Fluor 647, Invitrogen A-20006) at a 2:1 molar ratio (Alexa to ApoA-I) for 1 h under shaking at RT. The remaining unconjugated label was removed by buffer exchange to 0.02M NaHCO3 at pH 8.2.
Imaging and data collection were performed on an OPERA confocal microplate imaging reader using a 20× water immersion objective and UV360 or 405 laser to identify the cell nuclei and a 635 laser to identify the fluorescent ApoA-I. Eight fields of view are captured per well. Image capture and analysis was performed with the Acapella software. Background fluorescence detected in control wells without ApoA-I was subtracted.
Using XLfit3 program (ID Business Solutions Ltd. UK), the model 205 for Dose Response One Site is used to calculate the EC50 values. […] More particularly, the compounds of the present invention have EC50 values in a range of 0.1 μM to 3 μm.

Where [1] appears, read: displacement of [3H]-CP-55,940 at 10 μM.

T2 sequence (P34972 whole entry): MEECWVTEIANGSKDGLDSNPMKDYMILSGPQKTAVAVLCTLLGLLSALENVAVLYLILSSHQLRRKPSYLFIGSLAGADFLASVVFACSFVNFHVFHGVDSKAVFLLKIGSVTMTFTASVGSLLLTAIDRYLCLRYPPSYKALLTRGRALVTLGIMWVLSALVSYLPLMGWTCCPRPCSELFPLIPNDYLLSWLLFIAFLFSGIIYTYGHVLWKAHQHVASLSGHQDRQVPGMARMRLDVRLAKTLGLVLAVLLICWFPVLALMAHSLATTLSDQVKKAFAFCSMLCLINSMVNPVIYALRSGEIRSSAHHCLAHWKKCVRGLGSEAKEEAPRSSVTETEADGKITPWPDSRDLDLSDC
T1 sequence (P21554 whole entry): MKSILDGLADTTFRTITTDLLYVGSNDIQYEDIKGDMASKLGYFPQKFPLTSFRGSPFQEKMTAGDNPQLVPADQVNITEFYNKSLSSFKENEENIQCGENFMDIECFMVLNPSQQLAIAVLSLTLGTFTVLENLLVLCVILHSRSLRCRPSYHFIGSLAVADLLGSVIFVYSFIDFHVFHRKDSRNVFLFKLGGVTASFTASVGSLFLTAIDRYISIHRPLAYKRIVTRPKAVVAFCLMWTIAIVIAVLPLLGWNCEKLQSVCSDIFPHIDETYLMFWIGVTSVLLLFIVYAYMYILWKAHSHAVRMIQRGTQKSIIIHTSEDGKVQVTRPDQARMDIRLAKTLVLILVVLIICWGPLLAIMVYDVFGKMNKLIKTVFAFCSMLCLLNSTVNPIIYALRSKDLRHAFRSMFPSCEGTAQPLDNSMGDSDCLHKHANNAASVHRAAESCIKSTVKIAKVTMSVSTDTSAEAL

As for `CN(NC(=O)c1cnc(OCC(F)(F)F)c(C2CCCC2)c1)c1ccccc1` [Example 18, 5-cyclopentyl-N′-methyl-N′-phenyl-6-(2,2,2-trifluoroethoxy)-3-pyridinecarboxylic acid hydrazide], the inhibition at 10 µM on human CB1 receptor (setting [1]) worked out at 41%; on human CB2 receptor it was 18%. In addition, the “% increase of ABCA1 at 3 μM” value with ABCA1 protein is greater than 45%@ 3 μM.

On to `O=C(NN1CCOCC1)c1cnc(OCC(F)(F)F)c(C2CCCC2)c1` [Example 14, 5-cyclopentyl-N-morpholino-6-(2,2,2-trifluoroethoxy)-3-pyridinecarboxamide], for which the inhibition at 10 µM at human CB1 receptor (setting [1]) is 19%; at human CB2 receptor, 9%. For the same compound, the 50% effective concentration (EC50) with ABCA1 protein was found to be 1.08 µM.

In the case of `CN(NC(=O)c1cnc(OCC(F)(F)F)c(-c2ccc(Cl)cc2)c1)c1ccc(Cl)nn1` [Example 8, 5-(4-chlorophenyl)-N′-(6-chloropyridazin-3-yl)-N′-methyl-6-(2,2,2-trifluoroethoxy)-3-pyridinecarboxylic acid hydrazide], the values for the inhibition at 10 µM at human CB1 receptor (setting [1]) and on human CB2 receptor were 38% and 18%, respectively. Also, the “% increase of ABCA1 at 3 μM” value in the assay with ABCA1 protein is listed as greater than 45%@ 3 μM.

Consider `CN(NC(=O)c1cnc(OCC2CC2)c(C2CC2)c1)c1ccc(C#N)cc1` [Example 53, 5-cyclopropyl-6-cyclopropylmethoxy-nicotinic acid N′-(4-cyano-phenyl)-N′-methyl-hydrazide], for which the inhibition at 10 µM worked out at 47% on human CB1 receptor (setting [1]) and 48% at human CB2 receptor. Further, the “% increase of ABCA1 at 3 μM” value in the assay on ABCA1 protein is greater than 45%@ 3 μM.

With `O=C(NN1CCC(O)CC1)c1cnc(OCC(F)(F)F)c(-c2ccc(Cl)cc2)c1` [Example 6, 5-(4-chlorophenyl)-N-(4-hydroxypiperidin-1-yl)-6-(2,2,2-trifluoroethoxy)-3-pyridinecarboxamide], the inhibition at 10 µM was 11% on human CB1 receptor and -9% on human CB2 receptor. The half-maximal effective concentration (EC50) in the assay with ABCA1 protein was determined as 1.11 µM.

With `CN(NC(=O)c1cnc(OC2CCC2)c(-c2ccco2)c1)c1ccc(Cl)nn1` [Example 51, 6-cyclobutoxy-5-furan-2-yl-nicotinic acid N′-(6-chloro-pyridazin-3-yl)-N′-methyl-hydrazide], the inhibition at 10 µM at human CB1 receptor is 30%; at human CB2 receptor, -4%. In the assay with ABCA1 protein, the EC50 was 0.47 µM.

As to `CN(NC(=O)c1cnc(OCC(F)(F)F)c(C2CC2)c1)c1ccc(C#N)cc1` [Example 54, 5-cyclopropyl-6-(2,2,2-trifluoro-ethoxy)-nicotinic acid N′-(4-cyano-phenyl)-N′-methyl-hydrazide], the inhibition at 10 µM on human CB1 receptor (setting [1]) amounted to 36%; at human CB2 receptor it was 17%. Further, the “% increase of ABCA1 at 3 μM” value in the assay with ABCA1 protein was greater than 45%@ 3 μM.

Consider `O=C(NN1CCOCC1)c1cnc(OCC(F)(F)F)c(-c2ccc(Cl)cc2)c1` [Example 2, 5-(4-chlorophenyl)-N-morpholino-6-(2,2,2-trifluoroethoxy)-3-pyridinecarboxamide], for which the inhibition at 10 µM on human CB1 receptor (setting [1]) turned out to be 43%; at human CB2 receptor, 8%. The “% increase of ABCA1 at 3 μM” value in the assay on ABCA1 protein is given as greater than 45%@ 3 μM.

`CC(C)(C)OC(=O)N1CCC(c2cc(C(=O)NN3CCC(CCO)CC3)cnc2OCC(F)(F)F)CC1` [Example 39, 5-[4-(2-hydroxy-ethyl)-piperidin-1-ylcarbamoyl]-2-(2,2,2-trifluoro-ethoxy)-3′,4′,5′,6′-tetrahydro-2′H-[3,4′]bipyridinyl-1′-carboxylic acid tert-butyl ester]: the inhibition at 10 µM at human CB1 receptor (setting [1]) is -3%; at human CB2 receptor it was -5%. Besides, the 50% effective concentration (EC50) in the assay with ABCA1 protein was found to be 1.8 µM.

In the case of `O=C(NN1CC(O)C1)c1cnc(OCC(F)(F)F)c(-c2ccc(Cl)cc2)c1` [Example 29, 5-(4-chlorophenyl)-N-(3-hydroxyazetidin-1-yl)-6-(2,2,2-trifluoroethoxy)-3-pyridinecarboxamide], the inhibition at 10 µM at human CB1 receptor (setting [1]) is 44%; on human CB2 receptor it was -10%. Besides, in the assay on ABCA1 protein, the “% increase of ABCA1 at 3 μM” value was greater than 45%@ 3 μM.

As to `CN(NC(=O)c1cnc(OCC2CC2)c(C2CC2)c1)c1ccc(F)cc1` [Example 41, 5-cyclopropyl-6-cyclopropylmethoxy-nicotinic acid N′-(4-fluoro-phenyl)-N′-methyl-hydrazide], the inhibition at 10 µM at human CB1 receptor (setting [1]) is 29%; on human CB2 receptor, 38%. The EC50 in the assay on ABCA1 protein amounted to 1.1 µM.

Consider `O=C(NN1CCS(=O)(=O)CC1)c1cnc(OCC(F)(F)F)c(C2CC2)c1` [Example 31, 5-cyclopropyl-N-(1,1-dioxo-1λ6-thiomorpholin-4-yl)-6-(2,2,2-trifluoro-ethoxy)-nicotinamide], for which the inhibition at 10 µM at human CB1 receptor (setting [1]) was -2%; on human CB2 receptor, -14%. The “% increase of ABCA1 at 3 μM” value in the assay with ABCA1 protein is greater than 45%@ 3 μM.

`CN(NC(=O)c1cnc(OCC(F)(F)F)c(-c2cccc(F)c2)c1)c1ccccc1` [Example 56, 5-(3-fluoro-phenyl)-6-(2,2,2-trifluoro-ethoxy)-nicotinic acid N′-methyl-N′-phenyl-hydrazide]: the figures for the inhibition at 10 µM on human CB1 receptor (setting [1]) and at human CB2 receptor were 28% and 16%, respectively. In the assay with ABCA1 protein, the “% increase of ABCA1 at 3 μM” value is given as greater than 45%@ 3 μM.

Regarding `CN(NC(=O)c1cnc(OCC(F)(F)F)c(C2CC2)c1)c1ccc(F)cc1` [Example 34, 5-cyclopropyl-6-(2,2,2-trifluoro-ethoxy)-nicotinic acid N′-(4-fluoro-phenyl)-N′-methyl-hydrazide], the inhibition at 10 µM stood at 15% at human CB1 receptor (setting [1]) and 8% at human CB2 receptor. In addition, in the assay with ABCA1 protein, the EC50 came to 0.83 µM.

Consider `CN(NC(=O)c1cnc(OCC2CC2)c(C2CC2)c1)c1ccccc1` [Example 43, 5-cyclopropyl-6-cyclopropylmethoxy-nicotinic acid N′-methyl-N′-phenyl-hydrazide], for which the inhibition at 10 µM on human CB1 receptor (setting [1]) was 28%; on human CB2 receptor, 39%. Moreover, the half-maximal effective concentration (EC50) with ABCA1 protein came out at 1.04 µM.

Regarding `C[C@@H]1CN(NC(=O)c2cnc(OCC3CC3)c(C3CC3)c2)C[C@H](C)O1` [Example 45, 5-cyclopropyl-6-cyclopropylmethoxy-N-((2R,6S)-2,6-dimethyl-morpholin-4-yl)-nicotinamide], the inhibition at 10 µM came out at 19% at human CB1 receptor (setting [1]) and 17% at human CB2 receptor. In the assay with ABCA1 protein, the concentration for a half-maximal effect (EC50) stood at 9.4 µM.

Regarding `N#Cc1ccc(-c2cc(C(=O)NN3CCC(CCO)CC3)cnc2OCC(F)(F)F)cc1` [Example 38, 5-(4-cyano-phenyl)-N-[4-(2-hydroxy-ethyl)-piperidin-1-yl]-6-(2,2,2-trifluoro-ethoxy)-nicotinamide], the inhibition at 10 µM on human CB1 receptor (setting [1]) was 37%; at human CB2 receptor, -6%. Also, in the assay with ABCA1 protein, the concentration giving a half-maximal response (EC50) amounted to 0.15 µM.

In the case of `O=C(NN1CCC(O)CC1)c1cnc(OCC2CC2)c(-c2ccc(Cl)cc2)c1` [Example 10, 5-(4-chlorophenyl)-6-(cyclopropylmethoxy)-N-(4-hydroxypiperidin-1-yl)-3-pyridinecarboxamide], the results for the inhibition at 10 µM at human CB1 receptor (setting [1]) and on human CB2 receptor were 34% and 2%, respectively. Besides, the EC50 in the assay with ABCA1 protein amounted to 1.03 µM.
